Values of other authors as cited in PMC7913621 (Molecules, 2021).

Assays:
[1] = tested on: AChE; details: read-out: AChE inhibition IC50; cited from earlier work
[2] = tested on: PDE5A1; details: read-out: PDE5A1 inhibition IC50; cited from earlier work
[3] = tested on: PDE; details: read-out: PDE inhibition activity IC50; cited from earlier work
[4] = tested on: colon cancer cell line HT29; details: read-out: cytotoxic effect IC50; cited from earlier work

| SMILES | IC50 [1] [nM] | IC50 [2] [nM] | IC50 [3] [nM] | IC50 [4] [nM] |
| --- | --- | --- | --- | --- |
| O=C1C2Cc3c([nH]c4ccccc34)C(c3ccc4c(c3)OCO4)N2C(=O)CN1CCC1CCN(Cc2ccccc2)CC1 (stereo not shown) [Compound 5] | 32 | 1530 | – | – |
| CCN1CC(=O)N2C(Cc3c([nH]c4ccccc34)C2c2ccccc2Br)C1=O (stereo not shown) [Compound 3] | – | – | 60 | 25500 |
